Where two headings read alike, the source gives them in different places.
Experiments:
Type in all cases: cell-based
[1] = test system: Klebsiella pneumoniae harboring NDM-1; experiment: Time-kill study with meropenem
Protocol: Mueller-Hinton broth (MHB) was warmed from fridge temperature cold. […] A sample of Example 26 was dissolved in DMSO.
The 96-well plates were prepared using a multi-channel pipette, adding […] PBS to columns 2-9, or the required number of dilutions needed in the experiment. Each Inoculum was prepared by picking a single colony from the fresh plate that was disperged into 1 mL MHB, the loop was agitated to ensure all the colony comes off the loop. The tube was Vortex mixed, and a 100 μL aliquot was taken from the tube into 9.9 mL of MHB into the media bottle. […] The procedure was repeated for as many samples needed in the study. Aliquots of 5 mL inoculum were transferred to as many media bottles as needed, e.g. 4 mg/L MEM, 4 mg/L MEM+50 μM test substance, 4 mg/L MEM+100 μM test substance. Then […] aliquots were taken from each culture and added to Column 1 on the 96 well plate, e.g. culture 1: 50 μl into A1, […] into B1 etc. for time point 0 h. Then […] MEM was added into each bottle, followed by the required amount of test substance. The bottles were mixed gently to avoid formation of bubbles, and incubated in a secondary container at 37° C. at 180 rpm. Finally, serial dilutions were performed using multi-channel pipette taking 30 μL for column 1, adding to column 2, mixing well, repeating from column 2 to 3 with clean pipette tips.

E. coli AMA323 (VIM-4) = experiment: Checkerboard MIC, Example 26 and meropenem; conditions: for MIC: Escherichia coli
Protocol: (§1) A checkerboard MIC assay was using the broth dilution method according to CLSI guidelines. […] Dilutions to 4 mg/ml was performed by adding+4.75 ml sterile saline to 0.25 ml of the stock solution, and dilutions to 512 μg/ml was performed by adding 10.9 ml MH-broth to the 4 mg/ml solution. Inoculums of bacterial strains as described in Table 4 were prepared by suspending fresh overnight colonies from 5% horse blood agar were to a turbidity of 0.5 McFarland and further diluted to 1×10^6 CFU/ml in MH-broth. Aliquots of 50 μl of MH-broth were added to each well of polystyrene microtiter plates. […] The plates were incubated at 35° C., 16-20 hours.

[2] = test system: K. pneumonia 50825040 (NDM-1); experiment: Checkerboard MIC, Example 26 and meropenem; conditions: for MIC: Klebsiella pneumoniae
Protocol: as §1

E. coli 50676002 (NDM-1) = experiment: Checkerboard MIC, Example 26 and meropenem; conditions: for MIC: Escherichia coli
Protocol: as §1

[3] = test system: K. pneumonia 50752501 (NDM-1); experiment: Checkerboard MIC, Example 26 and meropenem; conditions: for MIC: Klebsiella pneumoniae
Protocol: as §1

[4] = test system: K. pneumonia 50627996 (NDM-1); experiment: Checkerboard MIC, Example 26 and meropenem; conditions: for MIC: Klebsiella pneumoniae
Protocol: as §1

E. coli 50739822 (NDM-1) = experiment: Checkerboard MIC, Example 26 and meropenem; conditions: for MIC: Escherichia coli
Protocol: as §1

[5] = test system: K. pneumonia 50690310 (NDM-1); experiment: Checkerboard MIC, Example 26 and meropenem; conditions: for MIC: Klebsiella pneumoniae
Protocol: as §1

E. coli 50921466 (VIM-1) = experiment: Checkerboard MIC, Example 26 and meropenem; conditions: for MIC: Escherichia coli
Protocol: as §1

[6] = test system: K. pneumonia 50923744 (VIM); experiment: Checkerboard MIC, Example 26 and meropenem; conditions: for MIC: Klebsiella pneumoniae
Protocol: as §1

[7] = test system: K. pneumonia K45-67 (VIM-1); experiment: Checkerboard MIC, Example 26 and meropenem; conditions: for MIC: Klebsiella pneumoniae
Protocol: as §1

[8] = test system: K. pneumonia 50877064 (NDM-1); experiment: Checkerboard MIC, Example 26 and meropenem; conditions: for MIC: Klebsiella pneumoniae
Protocol: as §1

[9] = test system: K. pneumonia K46-62 (VIM-1); experiment: Checkerboard MIC, Example 26 and meropenem; conditions: for MIC: Klebsiella pneumoniae
Protocol: as §1

[10] = test system: K. pneumonia K66-45 (NDM-1); experiment: Checkerboard MIC, Example 26 and meropenem; conditions: for MIC: Klebsiella pneumoniae
Protocol: as §1

E. coli AMA817 (NDM-1) = experiment: Checkerboard MIC, Example 26 and meropenem; conditions: for MIC: Escherichia coli
Protocol: as §1

E. coli AMA1563 (NDM-5) = experiment: Checkerboard MIC, Example 26 and meropenem; conditions: for MIC: Escherichia coli
Protocol: as §1

[11] = read-out: MIC alone, Example 26

CN(C[C@H](O)[C@@H](O)[C@H](O)[C@H](O)CO)C(=O)c1ccc(CN(Cc2ccccn2)Cc2ccccn2)nc1 [Example 26, 6-((bis(pyridin-2-ylmethyl)amino)methyl)-N-methyl-N-((2S,3R,4R,5R)-2,3,4,5,6-pentahydroxyhexyl)nicotinamide]
time after which CFU drops to below the limit of detection (LOD) ([1]; Example 26 + 4 mg/L meropenem, irrespective of the concentration of Example 26): 5 to 10 h
period CFU stays below LOD ([1]; Example 26 + 4 mg/L meropenem, period of the study): ≥ 30 h
MIC (E. coli AMA323 (VIM-4); [11]): > 400 µg/mL
MIC in combination, Example 26 (E. coli AMA323 (VIM-4); with meropenem): 12.5 µg/mL
MIC [2, 11]: > 400 µg/mL
MIC in combination, Example 26 ([2]; with meropenem): 12.5 µg/mL
MIC (E. coli 50676002 (NDM-1); [11]): > 400 µg/mL
MIC in combination, Example 26 (E. coli 50676002 (NDM-1); with meropenem): 12.5 µg/mL
MIC [3, 11]: > 400 µg/mL
MIC in combination, Example 26 ([3]; with meropenem): 25 µg/mL
MIC [4, 11]: > 400 µg/mL
MIC in combination, Example 26 ([4]; with meropenem): 12.5 µg/mL
MIC (E. coli 50739822 (NDM-1); [11]): > 400 µg/mL
MIC in combination, Example 26 (E. coli 50739822 (NDM-1); with meropenem): 12.5 µg/mL
MIC [5, 11]: > 400 µg/mL
MIC in combination, Example 26 ([5]; with meropenem): 12.5 µg/mL
MIC (E. coli 50921466 (VIM-1); [11]): > 400 µg/mL
MIC in combination, Example 26 (E. coli 50921466 (VIM-1); with meropenem): 12.5 µg/mL
MIC [6, 11]: > 400 µg/mL
MIC in combination, Example 26 ([6]; with meropenem): 12.5 µg/mL
MIC [7, 11]: > 400 µg/mL
MIC in combination, Example 26 ([7]; with meropenem): 12.5 µg/mL
MIC [8, 11]: > 400 µg/mL
MIC in combination, Example 26 ([8]; with meropenem): 12.5 µg/mL
MIC [9, 11]: > 400 µg/mL
MIC in combination, Example 26 ([9]; with meropenem): 12.5 µg/mL
MIC [10, 11]: > 400 µg/mL
MIC in combination, Example 26 ([10]; with meropenem): 12.5 µg/mL
MIC (E. coli AMA817 (NDM-1); [11]): > 400 µg/mL
MIC in combination, Example 26 (E. coli AMA817 (NDM-1); with meropenem): 12.5 µg/mL
MIC (E. coli AMA1563 (NDM-5); [11]): > 400 µg/mL
MIC in combination, Example 26 (E. coli AMA1563 (NDM-5); with meropenem): 25 µg/mL

C[C@@H](O)[C@H]1C(=O)N2C(C(=O)O)=C(S[C@@H]3CN[C@H](C(=O)N(C)C)C3)[C@H](C)[C@H]12 [meropenem, reference compound]
time after which CFU starts to increase ([1]; 4 mg/L meropenem alone): about 5 hours
MIC (E. coli AMA323 (VIM-4); read-out: MIC alone, Meropenem): 8 µg/mL
MIC in combination, Meropenem (E. coli AMA323 (VIM-4); with Example 26): ≤0.0625 µg/mL
MIC ([2]; read-out: MIC alone, Meropenem): 64 µg/mL
MIC in combination, Meropenem ([2]; with Example 26): ≤0.0625 µg/mL
MIC (E. coli 50676002 (NDM-1); read-out: MIC alone, Meropenem): 32 µg/mL
MIC in combination, Meropenem (E. coli 50676002 (NDM-1); with Example 26): ≤0.0625 µg/mL
MIC ([3]; read-out: MIC alone, Meropenem): 64 µg/mL
MIC in combination, Meropenem ([3]; with Example 26): ≤0.0625 µg/mL
MIC ([4]; read-out: MIC alone, Meropenem): 64 µg/mL
MIC in combination, Meropenem ([4]; with Example 26): 0.125 µg/mL
MIC (E. coli 50739822 (NDM-1); read-out: MIC alone, Meropenem): 32 µg/mL
MIC in combination, Meropenem (E. coli 50739822 (NDM-1); with Example 26): ≤0.0625 µg/mL
MIC ([5]; read-out: MIC alone, Meropenem): 16 µg/mL
MIC in combination, Meropenem ([5]; with Example 26): ≤0.0625 µg/mL
MIC (E. coli 50921466 (VIM-1); read-out: MIC alone, Meropenem): 2 µg/mL
MIC in combination, Meropenem (E. coli 50921466 (VIM-1); with Example 26): ≤0.0625 µg/mL
MIC ([6]; read-out: MIC alone, Meropenem): 2 µg/mL
MIC in combination, Meropenem ([6]; with Example 26): ≤0.0625 µg/mL
MIC ([7]; read-out: MIC alone, Meropenem): 32 µg/mL
MIC in combination, Meropenem ([7]; with Example 26): ≤0.0625 µg/mL
MIC ([8]; read-out: MIC alone, Meropenem): 64 µg/mL
MIC in combination, Meropenem ([8]; with Example 26): ≤0.0625 µg/mL
MIC ([9]; read-out: MIC alone, Meropenem): 32 µg/mL
MIC in combination, Meropenem ([9]; with Example 26): ≤0.0625 µg/mL
MIC ([10]; read-out: MIC alone, Meropenem): 64 µg/mL
MIC in combination, Meropenem ([10]; with Example 26): ≤0.0625 µg/mL
MIC (E. coli AMA817 (NDM-1); read-out: MIC alone, Meropenem): 32 µg/mL
MIC in combination, Meropenem (E. coli AMA817 (NDM-1); with Example 26): ≤0.0625 µg/mL
MIC (E. coli AMA1563 (NDM-5); read-out: MIC alone, Meropenem): 64 µg/mL
MIC in combination, Meropenem (E. coli AMA1563 (NDM-5); with Example 26): ≤0.0625 µg/mL

Reference: US11649222B2, “Compounds” (UNIVERSITETET I OSLO, priority 2016, dated 2023)
